Structures are written as SMILES.

The results in this text go back to paper PMC9606171, “Synthetic PPAR Agonist DTMB Alleviates Alzheimer’s Disease Pathology by Inhibition of Chronic Microglial Inflammation in 5xFAD Mice” (Neurotherapeutics, 2022).

The test system of one experiment is primary microglia. In words: Western blot of NF-κB, NLRP3 and ASC in primary microglia. The note with it: DTMB 25 µM, 24 h. It is filed as cell-based, mice. How it is done:
Primary microglia culture was conducted as described in a previous study. Mice at postnatal day 3 mice were used for the preparation of primary microglia. Newborn mice pups were anesthetized in ice and then sacrificed. Isolated cortex and hippocampus were collected after removing the meninges. Brain tissues were dissociated by incubating in HBSS (Gibco, Gaithersburg, MD, USA) with trypsin (2.5%) for 15 min. Cell homogenates were then incubated in M-CSF (20 ng/mL, R&D Systems) supplemented with DMEM-F12 medium with 10% fetal bovine serum, 10% horse serum, 1% GlutaMAX (Gibco, MD, USA), and 1% penicillin/streptomycin (Welgene, Korea). After 10 days, microglia were purified through shaking at 260 rpm for 2 h.
(§1) Cells were lysed with lysis buffer containing 50 mM Tris (pH 7.4), 140 mM NaCl, 5 mM EDTA, and a protease inhibitor tablet, followed by sonication. Lysate protein concentrations were determined using Bradford reagents (AMERSCO, MA, USA). Proteins were resolved by sodium dodecyl sulfate (SDS) polyacrylamide gel electrophoresis, transferred to nitrocellulose membranes (Pall Corporation, New York, NY, USA), and incubated with blocking buffer (5% nonfat dry milk in TBS and 0.1% Tween 20) for 30 min. Western blot analyses were performed using primary antibodies against NF-κB, NLRP3, ASC, nicastrin, pen2 (Cell Signaling Technology, Danvers, MA, USA), Aph1 (Invitrogen), amyloid C-terminal fragment (Santa Cruz Biotechnology, Dallas, TX, USA), and GAPDH (Bethyl Laboratories, Mongomery, TX, USA). Secondary antibodies of rabbit (Promega), rat, and goat (Bethyl Laboratories) were used, and detection was performed with SUPEX ECL reagent (Neuronex, Korea) and an ImageQuant LAS-4000 (GE Healthcare, MA, USA), according to the manufacturer’s instructions. The integrated blot density was quantified through ImageJ.

In experiment [1] the target is T1, recombinant human PPARα LBD (Homo sapiens, UniProt Q07869).
T1 sequence (Q07869 239-466 limits assumed): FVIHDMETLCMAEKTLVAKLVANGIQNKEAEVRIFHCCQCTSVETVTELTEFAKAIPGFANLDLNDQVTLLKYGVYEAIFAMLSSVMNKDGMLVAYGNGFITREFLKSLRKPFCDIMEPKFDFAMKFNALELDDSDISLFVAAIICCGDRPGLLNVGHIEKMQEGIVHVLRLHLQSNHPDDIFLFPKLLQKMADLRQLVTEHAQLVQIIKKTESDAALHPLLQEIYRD
In words: CNBr-bead pull down assay, PPARα LBD. In kind it is binding. The conditions noted are these: drug conjugated CNBr beads. How it is done: (§2) CNBr Sepharose 4B beads were prepared and activated according to the instruction. 100 mg of CNBr activated Sepharose 4B beads were incubated with drugs or DMSO for 18 h at 4 °C. The drug conjugated beads reacted to his-tagged recombinant PPAR α, β/δ, and γ protein. After 24 h of incubation, we confirmed whether recombinant protein binds to the drug conjugated bead through western blotting experiment.

For experiment [2], the target named is T2, recombinant human PPAR β/δ LBD (Homo sapiens, UniProt Q03181).
T2 sequence (Q03181 211-439 limits assumed): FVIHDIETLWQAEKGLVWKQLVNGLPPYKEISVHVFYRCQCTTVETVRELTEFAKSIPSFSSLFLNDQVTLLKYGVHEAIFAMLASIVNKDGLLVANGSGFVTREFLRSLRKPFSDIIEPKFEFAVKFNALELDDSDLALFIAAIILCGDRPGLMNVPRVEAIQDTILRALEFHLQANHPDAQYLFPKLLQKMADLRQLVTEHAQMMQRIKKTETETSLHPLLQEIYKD
In words: CNBr-bead pull down assay, PPAR β/δ LBD. The note with it: drug conjugated CNBr beads. It is filed as binding. How it is done: as §2

In experiment [3] the test system is 5xFAD mice. In words: qPCR and western blot of inflammation markers in 5xFAD brain. It is filed as in vivo. How it is done: (§3) DTMB was synthesized from Daejung Chemicals (Korea) and was dissolved in dimethyl sulfoxide (Sigma Aldrich, St. Louis, MO, USA) for cell-based experiments. To evaluate the effects of DTMB on 5xFAD mice, DTMB (10 mg/kg) and vehicle (1% carboxymethylcellulose and 10% DMSO) were orally administrated to four groups (wild-type, wild-type + DTMB, 5xFAD, and 5xFAD + DTMB) with a 6 day per week for 3 months.
as §1
Total RNA was isolated using TRI Reagent (Molecular Research Center, Cincinnati, OH, USA). RNA was reverse transcribed using the ImProm-II™ Reverse Transcription System (Promega) according to the manufacturer’s instructions. For detection and quantification, a StepOnePlus Real-Time PCR System (Applied Biosystems, Foster City, CA, USA) was used with FastStart Universal SYBR Green Master (Roche, Basel, Switzerland). Real-time qPCR data were analyzed using the comparative CT method. Sample sizes were 10–15 mice per group.

Experiment [4] has as its system 5xFAD mice. In words: Western blot and qPCR of APP and β-/γ-secretase in 5xFAD brain. In kind it is in vivo. The note with it: 10 mg/kg orally, 3 months. How it is done:
as §3
Cells were lysed with lysis buffer containing 50 mM Tris (pH 7.4), 140 mM NaCl, 5 mM EDTA, and a protease inhibitor tablet, followed by sonication. Lysate protein concentrations were determined using Bradford reagents (AMERSCO, MA, USA). Proteins were resolved by sodium dodecyl sulfate (SDS) polyacrylamide gel electrophoresis, transferred to nitrocellulose membranes (Pall Corporation, New York, NY, USA), and incubated with blocking buffer (5% nonfat dry milk in TBS and 0.1% Tween 20) for 30 min. […] The integrated blot density was quantified through ImageJ.
Total RNA was isolated using TRI Reagent (Molecular Research Center, Cincinnati, OH, USA). […] For detection and quantification, a StepOnePlus Real-Time PCR System (Applied Biosystems, Foster City, CA, USA) was used with FastStart Universal SYBR Green Master (Roche, Basel, Switzerland). Real-time qPCR data were analyzed using the comparative CT method. […]

In experiment [5] the test system is RAW 264.7 macrophage cells. In words: Griess assay, LPS-induced NO production. In kind it is cell-based. The note with it: LPS (1 µg/mL), 24 h. How it is done:
Griess assay (Promega) was performed under manufacturer’s instruction to measure the concentration of nitrite after inducing the inflammatory response in RAW 264.7 macrophage cells by LPS treatment. The well-known PPAR selective agonists, such as WY14643 (PPARα), GW501516 (PPAR-β/δ), and rosiglitazone (PPARγ), were used as positive controls.

The target of another experiment is T3, PPARδ (Homo sapiens, UniProt Q03181).
T3 construct: pcDNA5-GAL4-PPAR LBD, pG5-luc, and Rluc vector (as control) were transfected into HEK293A cells; expressed in transfected cells; host or cells: HEK293A
T3 sequence (Q03181 211-439 limits assumed): T2 sequence (Q03181 211-439 limits assumed)
In words: Gal4-transactivation luciferase assay in HEK293A cells, PPARδ LBD. It is filed as cell-based. How it is done: HEK293A cells were transfected with the GAL4-reporter plasmids and pGL4.74 (Promega, Madison, WI, USA) as an internal standard through electroporation using a Neon Transfection System (Invitrogen, Carlsbad, CA, USA). All vector materials were provided by Professor Yuichiro Kanno at Toho University. Cells were treated with DTMB and each positive control compound for 24 h after overnight incubation. Cells were then harvested and resuspended in luciferase lysis buffer (Promega), followed by incubation on ice for 10 min. Cell debris was removed by centrifugation at 20,000 × g at 4 °C for 10 min, and the supernatants were used for luciferase assay. Using a dual-luciferase reporter assay system (Promega), luciferase activities were measured according to the manufacturer’s instructions. Experimental firefly luciferase activities were normalized against those of Renilla luciferase.

Setting [6] is: hippocampal brain lysates, 5xFAD mice.

For the compound `COc1ccc(-c2cc(=O)oc3c(C)c(OC(=O)[C@H](Cc4c[nH]c5ccccc45)NC(=O)OC(C)(C)C)ccc23)cc1` [DTMB], in the experiment on primary microglia, the “protein level of ASC” value is on record as “not changed”, the “protein level of NF-κB” value was “decreased” and the “protein level of NLRP3” value is “decreased”. Moreover, in experiment [1] (PPARα LBD), the “binding to PPAR LBD (pull-down, western blot)” value is on record as “binds”. The “binding to PPARα LBD compared to WY14643 (pull-down)” value in experiment [1] is given as “stronger binding to PPARα LBD than WY14643”. Also, in experiment [2], the “binding to PPAR LBD (pull-down, western blot)” value is given as “binds”. Besides, in the experiment on 5xFAD mice [3] (5xFAD mouse brain, 10 mg/kg orally, 3 months), the “expression levels of proinflammatory cytokines and related enzymes (Il-1β, Il-6, and Inos)” value is recorded as “decreased”. In addition, in the experiment on 5xFAD mice [3] (setting [6]), the “level of ASC” value was “not changed significantly”, the “protein level of NF-κB” value is on record as “decreased” and the “protein level of NLRP3” value is on record as “decreased”. Besides, the “protein level of β-secretase” value in the experiment on 5xFAD mice [4] (cortex) is given as “slightly decreased”. Moreover, in the experiment on 5xFAD mice [4] (hippocampus), the “APP protein and mRNA level” value is “neither changes”. In addition, in experiment [5], the “NO production (nitrite)” value is reported as “reduced NO production in a concentration-dependent manner”; the “inhibition of NO production compared between DTMB and known PPAR agonists” value was “inhibited NO production greater than treatment with the known agonists of PPARα and PPARγ”. Besides, the relative luciferase activity result at PPARδ (HEK293A, 24 h, various concentrations) is reported as “increased luciferase activity”. Further, the “transactivation activity (luciferase) compared to positive control” value at PPARδ (versus positive control) is “lower than the positive controls”.
